Data taken from ChEMBL document CHEMBL1287721, “Synthesis of potent, substituted carbazoles as selective androgen receptor modulators (SARMs)” (Bioorg Med Chem Lett, 2010).
The source made the active and inactive calls. The calls are words filed in the database; no cut-off is given here.

Tests used:
[1] = target: T1, Androgen receptor (Homo sapiens, UniProt P10275); assay: Binding affinity to androgen receptor by fluorescence binding assay
T1 sequence (P10275 whole entry): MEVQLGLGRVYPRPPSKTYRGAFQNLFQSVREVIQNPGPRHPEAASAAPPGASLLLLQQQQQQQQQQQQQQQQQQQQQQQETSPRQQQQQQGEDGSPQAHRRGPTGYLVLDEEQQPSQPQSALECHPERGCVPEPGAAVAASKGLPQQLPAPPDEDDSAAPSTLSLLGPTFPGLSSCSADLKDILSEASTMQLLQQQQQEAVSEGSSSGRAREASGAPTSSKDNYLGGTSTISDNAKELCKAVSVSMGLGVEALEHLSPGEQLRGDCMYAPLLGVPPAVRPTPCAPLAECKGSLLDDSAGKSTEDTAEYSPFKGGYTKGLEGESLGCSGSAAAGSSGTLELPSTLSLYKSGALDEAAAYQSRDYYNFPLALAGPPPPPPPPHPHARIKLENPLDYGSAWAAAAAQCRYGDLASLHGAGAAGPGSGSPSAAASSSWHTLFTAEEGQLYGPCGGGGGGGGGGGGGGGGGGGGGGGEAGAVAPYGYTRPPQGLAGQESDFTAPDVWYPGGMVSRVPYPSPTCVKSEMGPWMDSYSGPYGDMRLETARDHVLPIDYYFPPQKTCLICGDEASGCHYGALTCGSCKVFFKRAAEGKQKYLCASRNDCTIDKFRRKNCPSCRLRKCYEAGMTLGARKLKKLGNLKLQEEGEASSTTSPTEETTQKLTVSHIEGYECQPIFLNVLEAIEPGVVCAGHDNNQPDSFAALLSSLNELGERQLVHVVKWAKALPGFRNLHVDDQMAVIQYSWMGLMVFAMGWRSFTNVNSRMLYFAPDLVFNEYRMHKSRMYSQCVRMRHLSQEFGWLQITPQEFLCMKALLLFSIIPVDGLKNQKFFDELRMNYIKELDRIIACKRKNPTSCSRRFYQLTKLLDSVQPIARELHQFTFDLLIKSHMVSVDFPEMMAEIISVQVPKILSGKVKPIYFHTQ

[2] = system: Rattus norvegicus; assay: Positive-anabolic effect in Sprague-Dawley rat assessed as increase in leavator ani muscle weight at 30 mg/kg, po administered once daily for 4 days and measured 24 hrs after the last dose by Herschberger assay; format: functional, organism-based; design: dose 30 mg/kg; conditions: Muscle tissue

| SMILES | IC50 [1] [nM] | Activity [2] |
| --- | --- | --- |
| OC1(C(F)(F)F)CCCc2c1[nH]c1ccc(Cl)c(Cl)c21 (stereo unspecified) | 95 | – |
| CC1(O)CCCc2c1[nH]c1ccc(C#N)cc21 (stereo unspecified) | 9200 | – |
| N#Cc1ccc2[nH]c3c(c2c1)CCCC3(O)C(F)(F)C(F)(F)F (stereo unspecified) | > 10000 | – |
| OC1(C(F)(F)C(F)(F)F)CCCc2c1[nH]c1cc(Cl)c(Cl)cc21 (stereo unspecified) | 34 | – |
| OC1(C(F)(F)F)CCCCc2c1[nH]c1c(Cl)cc(Cl)cc21 (stereo unspecified) | 600 | – |
| OC1(C(F)(F)F)c2[nH]c3c(Cl)cc(Cl)cc3c2CCC1(F)F (stereo unspecified) | 100 | – |
| OC1(C(F)(F)F)CCCc2c1[nH]c1c(Cl)ccc(Cl)c21 (stereo unspecified) | 85 | – |
| N#Cc1ccc2[nH]c3c(c2c1)CCCC3(O)C(F)(F)F (stereo unspecified) | 480 | – |
| Oc1c(Cc2ccccc2)ccc2c1[nH]c1cc(Cl)c(Cl)cc12 | > 1000 | – |
| OC1(C(F)(F)F)CCCc2c1[nH]c1c(Cl)cc(F)cc21 (stereo unspecified) | 90 | – |
| Oc1c(Cc2ccccc2)ccc2c1[nH]c1ccc(Cl)c(Cl)c12 | > 1000 | – |
| OC1(C(F)(F)F)CCc2c1[nH]c1c(Cl)cc(Cl)cc21 (stereo unspecified) | 13 | – |
| OC1(C(F)(F)F)CCCc2c1[nH]c1c(Cl)cc(Cl)cc21 (stereo unspecified) | 34 | – |
| CC1(O)CCCc2c1[nH]c1cc(Cl)c(Cl)cc21 (stereo unspecified) | > 10000 | – |
| OC1(C(F)(F)F)CCCc2c1[nH]c1cc(Cl)c(Cl)cc21 (stereo unspecified) | 27 | Active |
